These results are taken from US7964628B2, “Fibrinogen receptor antagonists and their use” (Piramal Life Sciences Limited, priority 2003, dated 2011).

Where a name gives a salt, the structure may show the parent alone.

In the case of `C=CCOc1cc(OCC(=O)OCC)ccc1C(=O)CN1Cc2cc(C(=N)NO)ccc2C1=O` (hydrate or solvate) [Example 83, (3-Allyloxy-4-{2-[5-(N-hydroxycarbamimidoyl)-1-oxo-1,3-dihydro-isoindol-2-yl]-acetyl}-phenoxy)-acetic acid ethyl ester], the melting point fell in the range of 182 to 183 °C.

On to `CCOC(=O)C(CCNC(=O)OCc1ccccc1)Oc1ccc(C(=O)CN2Cc3cc(C(=N)NO)ccc3C2=O)cc1` (stereo not shown) [Example 28, 4-Benzyloxycarbonylamino-2-(4-{2-[5-(N-hydroxycarbamimidoyl)-1-oxo-1,3-dihydro-isoindol-2-yl]-acetyl}-phenoxy)-butyric acid ethyl ester], for which the melting point fell in the range of 174 to 175 °C. For the molecule `CCOC(=O)COc1cc(O)c(C(=O)CN2Cc3cc(C(=N)NO)ccc3C2=O)cc1C(C)(C)C` [Example 52, (2-tert-Butyl-5-hydroxy-4-{2-[5-(N-hydroxycarbamimidoyl)-1-oxo-1,3-dihydro-isoindol-2-yl]-acetyl}-phenoxy)-acetic acid ethyl ester], the melting point is 177 to 178 °C. Then `CCOC(=O)COc1ccc(C(=O)CN2Cc3cc(C(=N)N)ccc3C2=O)c(OCC)c1` [Example 76, (4-{2-[5-carbamimidoyl-1-oxo-1,3-dihydro-isoindol-2-yl]-acetyl}-3-ethoxy-phenoxy)-acetic acid ethyl ester], with 202 to 203 °C. Under `N=C(NO)c1ccc2c(c1)CN(CC(=O)c1ccc(OCC(=O)OCc3ccccc3)cc1O)C2=O` [Example 43, (3-Hydroxy-4-{2-[5-(N-hydroxycarbamimidoyl)-1-oxo-1,3-dihydro-isoindol-2-yl]-acetyl}-phenoxy)-acetic acid benzyl ester] stands 183 to 184 °C; under `CC(C)COC(=O)COc1ccc(C(=O)CN2Cc3cc(C(=N)NO)ccc3C2=O)cc1` [Example 15, (4-{2-[5-(N-Hydroxycarbamimidoyl)-1-oxo-1,3-dihydro-isoindol-2-yl]-acetyl}-phenoxy)-acetic acid isobutyl ester], 153 to 154 °C; under `CC(C)COC(=O)NC(=N)c1ccc2c(c1)CN(CC(=O)c1ccc(OCC(=O)OCc3ccccc3)cc1)C2=O` (hydrate or solvate) [Example 19, (4-{2-[5-(Imino-isobutoxycarbonylamino-methyl)-1-oxo-1,3-dihydro-isoindol-2-yl]-acetyl}-phenoxy)-acetic acid benzyl ester], 162 to 163 °C.

With `COC(=O)COc1ccc(C(=O)CN2Cc3cc(C(=N)N)ccc3C2=O)cc1` (as salt: salt) [Example 1, (4-{2-[5-Carbamimidoyl-1-oxo-1,3-dihydro-isoindol-2-yl]-acetyl}-phenoxy)-acetic acid methyl ester], the melting point was 181 to 182 °C. Under `CCOC(=O)COc1ccc(C(=O)CN2Cc3cc(-c4nc(=O)o[nH]4)ccc3C2=O)c(O)c1` [Example 78, (3-Hydroxy-4-{2-[1-oxo-5-(5-oxo-2,5-dihydro-[1,2,4]oxadiazol-3-yl)-1,3-dihydro-isoindol-2-yl]-acetyl}-phenoxy)-acetic acid ethyl ester] stands 223 to 225 °C. Then `CCOC(=O)COc1ccc(C(=O)CN2Cc3cc(C(=N)N)ccc3C2=O)c(OCC(=O)OCC)c1` (as salt: salt) (hydrate or solvate) [Example 47, (4-{2-[5-Carbamimidoyl-1-oxo-1,3-dihydro-isoindol-2-yl]-acetyl}-3-ethoxycarbonylmethoxy-phenoxy)-acetic acid ethyl ester], with 186 to 188 °C; and `CC(C)COC(=O)NC(=N)c1ccc2c(c1)CN(CC(=O)c1ccc(OCC(=O)OC(C)C)cc1)C2=O` (hydrate or solvate) [Example 7, (4-{2-[5-(Imino-isobutoxycarbonylamino-methyl)-1-oxo-1,3-dihydro-isoindol-2-yl]-acetyl}-phenoxy)-acetic acid isopropyl ester], with 155 to 157 °C; and `CC(C)COC(=O)COc1ccc(C(=O)CN2Cc3cc(C(=N)N)ccc3C2=O)cc1OCC(=O)OCC(C)C` (as salt: hydroiodid) [Example 24, (4-{2-[5-Carbamimidoyl-1-oxo-1,3-dihydro-isoindol-2-yl]-acetyl}-2-isobutoxycarbonylmethoxy-phenoxy)acetic acid isobutyl ester], with 95 to 96 °C. Then `CCOC(=O)COc1ccc(C(=O)CN2Cc3cc(C(=N)NO)ccc3C2=O)cc1Cl` [Example 32, (2-Chloro-4-{2-[5-(N-hydroxycarbamimidoyl)-1-oxo-1,3-dihydro-isoindol-2-yl]-acetyl}-phenoxy)-acetic acid ethyl ester], with 201 to 202 °C; and `CCOC(=O)COc1ccc(C(=O)CN2Cc3cc(NC(C)=N)ccc3C2=O)c(O)c1` (as salt: iodide) (hydrate or solvate) [Example 74, (4-{2-[5-Acetimidoylamino-1-oxo-1,3-dihydro-isoindol-2-yl]-acetyl}-3-hydroxy-phenoxy)-acetic acid ethyl ester], with 196 to 197 °C; and `CCOC(=O)COc1cc(O)c(C(=O)CN2Cc3cc(C(=N)NO)ccc3C2=O)cc1CC` [Example 50, (2-Ethyl-5-hydroxy-4-{2-[5-(N-hydroxycarbamimidoyl)-1-oxo-1,3-dihydro-isoindol-2-yl]-acetyl}-phenoxy)-acetic acid ethyl ester], with 218 to 219 °C.

In the case of `CC(C)COC(=O)COc1ccc(C(=O)CN2Cc3cc(C(=N)NC(=O)OCc4ccccc4)ccc3C2=O)cc1` [Example 13, (4-{2-[5-(Benzyloxycarbonylamino-imino-methyl)-1-oxo-1,3-dihydro-isoindol-2-yl]-acetyl}-phenoxy)-acetic acid isobutyl ester], the melting point lay in the range of 139 to 140 °C. Then `CCOC(=O)COc1cc(O)c(C(=O)CN2Cc3cc(C(=N)NO)ccc3C2=O)cc1OCC(=O)OCC` (hydrate or solvate) [Example 65, (2-Ethoxycarbonylmethoxy-5-hydroxy-4-{2-[5-(N-hydroxycarbamimidoyl)-1-oxo-1,3-dihydro-isoindol-2-yl]-acetyl}-phenoxy)-acetic acid ethyl ester], with 186 to 188 °C; and `COC(=O)NC(=N)c1ccc2c(c1)CN(CC(=O)c1ccc(OCC(=O)OCc3ccccc3)cc1)C2=O` (hydrate or solvate) [Example 18, (4-{2-[5-(Imino-methoxycarbonylamino-methyl)-1-oxo-1,3-dihydro-isoindol-2-yl]-acetyl}-phenoxy)-acetic acid benzyl ester], with 184 to 186 °C; and `CCCOc1cc(OCC(=O)OCC)ccc1C(=O)CN1Cc2cc(C(=N)NO)ccc2C1=O` (hydrate or solvate) [Example 46, (4-{2-[5-(N-Hydroxycarbamimidoyl)-1-oxo-1,3-dihydro-isoindol-2-yl]-acetyl}-3-propoxy-phenoxy)-acetic acid ethyl ester], with 175 to 177 °C. Then `CCCc1c(OCC(=O)O)ccc(C(=O)CN2Cc3cc(C(=N)N)ccc3C2=O)c1O` (as salt: trifluoroacetic acid salt) [Example 60, (4-{2-[5-Carbamimidoyl-1-oxo-1,3-dihydro-isoindol-2-yl]-acetyl}-3-hydroxy-2-propyl-phenoxy)-acetic acid], with 222 to 223 °C. `N=C(N)c1ccc2c(c1)CN(CC(=O)c1ccc(OCC(=O)OC3CCN(C(=O)OCc4ccccc4)CC3)cc1)C2=O` (hydrate or solvate) [Example 26, 4-(2-{4-[2-(5-Carbamimidoyl-1-oxo-1,3-dihydro-isoindol-2-yl)-acetyl]-phenoxy}-acetoxy)-piperidine-1-carboxylic acid benzyl ester] yielded a melting point of 180 to 181 °C. Under `CCOC(=O)COc1cc(O)c(C(=O)CN2Cc3cc(C(=N)NO)ccc3C2=O)cc1C(C)C` [Example 51, (5-Hydroxy-4-{2-[5-(N-hydroxycarbamimidoyl)-1-oxo-1,3-dihydro-isoindol-2-yl]-acetyl}-2-isopropyl-phenoxy)-acetic acid ethyl ester] stands 207 to 209 °C. `CCOC(=O)COc1cc(O)c(C(=O)CN2Cc3cc(C(=N)NO)ccc3C2=O)c(O)c1` [Example 63, (3,5-Dihydroxy-4-{2-[5-(N-hydroxycarbamimidoyl)-1-oxo-1,3-dihydro-isoindol-2-yl]-acetyl}-phenoxy)-acetic acid ethyl ester] gave a melting point of 229 to 230 °C. Then `CCCc1c(OCC(=O)OCc2ccccc2)ccc(C(=O)CN2Cc3cc(C(=N)NO)ccc3C2=O)c1O` [Example 59, (3-Hydroxy-4-{2-[5-(N-hydroxycarbamimidoyl)-1-oxo-1,3-dihydro-isoindol-2-yl]-acetyl}-2-propyl-phenoxy)-acetic acid benzyl ester], with 199 to 200 °C; and `CCOC(=O)COc1ccc(C(=O)CN2Cc3cc(C(=N)N)ccc3C2=O)cc1Cl` (as salt: salt) [Example 30, (4-{2-[5-Carbamimidoyl-1-oxo-1,3-dihydro-isoindol-2-yl]-acetyl}-2-chloro-phenoxy)-acetic acid ethyl ester], with 172 to 173 °C; and `CCCc1c(OCC(=O)OCC)ccc(C(=O)CN2Cc3cc(C(=N)NO)ccc3C2=O)c1O` [Example 58, (3-Hydroxy-4-{2-[5-(N-hydroxycarbamimidoyl)-1-oxo-1,3-dihydro-isoindol-2-yl]-acetyl}-2-propyl-phenoxy)-acetic acid ethyl ester], with 211 to 212 °C. `CCOC(=O)COc1ccc(C(=O)CN2Cc3cc(C(=N)N)ccc3C2=O)cc1S(=O)(=O)CC` (as salt: salt) (hydrate or solvate) [Example 35, (4-{2-[5-Carbamimidoyl-1-oxo-1,3-dihydro-isoindol-2-yl]-acetyl}-2-ethanesulfonyl-phenoxy)-acetic acid ethyl ester] came in with a melting point of 174 to 175 °C. Under `CCOC(=O)COc1ccc(C(=O)CN2Cc3cc(-c4noc(C)n4)ccc3C2=O)c(OC(C)=O)c1` [Example 80, (3-Acetoxy-4-{2-[5-(5-methyl-[1,2,4]oxadiazol-3-yl)-1-oxo-1,3-dihydro-isoindol-2-yl]acetyl}-phenoxy)-acetic acid ethyl ester] stands 162 to 164 °C.
